Laboratory results reported in BigSolDB 2.1.

Nc1ccc(S(=O)(=O)Nc2ncccn2)cc1
solubility (mole fraction)
Details | 278.15 K | 283.15 K | 288.15 K | 293.15 K | 298.15 K | 303.15 K | 308.15 K | 313.15 K | 318.15 K
in acetonitrile | 0.000316 | 0.000385 | 0.000465 | 0.000532 | 0.000602 | 0.000666 | 0.000775 | 0.000865 | 0.000935
in methanol | 7.1e-05 | 9.5e-05 | 0.000132 | 0.000162 | 0.000191 | 0.000236 | 0.00029 | 0.00034 | 0.000384
